Laboratory results: US10004716B2, “Therapeutic/ preventive agent containing coumarin derivative as active ingredient” (NIPPON ZOKI PHARMACEUTICAL CO., LTD., priority 2014, dated 2018)

Key:
NF-κB = assay: Suppressive action to NF-κB activation (luciferase reporter, HEK293T cells, TNF-α); assay type: cell-based, human; details: HEK293T cells with NF-κB reporter; test substance 25 μml/mL 1 hour, then TNF-α 10 ng/mL 5 hours; stimulated TNF-α = 100
Procedure: A preparation solution containing pGL4.32 [luc2P/NF-κB-RE/Hygrol] (Promega) which is an NF-κB reporter vector, pGL4.74 [hRluc/TK] (Promega) which is a control vector and Lipofectamine LTX (Life Technologies) which is a gene transfer agent was added to human embryo kidney cells (HEK293T cells) sown onto a […] whereupon there were prepared the cells which transiently express a reporter protein.
After 24 hours from the gene transfer, transient expression cells were peeled off by treating with trypsin, sown on a poly-lysine coated white 96-well plate and incubated for one night. The test substance was added to as to make its final concentration 25 μml/mL and, after pre-incubating for 1 hour, TNF-α was added thereto so as to make its final concentration 10 ng/mL followed by incubating for 5 hours more. The cells were dissolved and the activities of a firefly luciferase and a renilla luciferase were measured. Rate of the luminescent intensity by addition of each drug to the luminescent intensity by stimulation with TNF-α were calculated.

Col 1 gene expression = assay: Evaluation II: TGF-β-induced gene expression of fibrosis-related factors in NHLF cells: Col 1; assay type: cell-based, human; details: 30 μM test substance, 200 μg/mL pirfenidone, 30 μM DEX, 1.0 μM TPCA-1 or 10 μM FP 2 hours, then TGF-β 0.5 ng/mL 4 hours, n = 4
Procedure: (§1) NHLF cells were sown so as to make their amount 5×10^4 cells/well to each well of a 12-well plate and incubated to an extent of 80% confluent in a medium where fibroblast growth medium 2 supplement mix (FGM-2 SingleQuots, Lonza) was added to a fibroblast basal medium (FBM, Lonza). After that, incubation was conducted for 2 hours in a DMEM medium containing 30 μM of a test substance, 200 μg/mL of pirfenidone, 30 μM of dexamethasone (DEX), 1.0 μM of TPCA-1 or 10 μM of fluticasone propionate (FP) and, after TGF-β was added thereto so as to make its final concentration 0.5 ng/mL, incubation was carried out for 4 hours more.
(§2) With regard to the extraction of RNA from NHLF cells, the synthesis of cDNA from RNA and the action of the test substance to gene expression of fibrosis-related factors [CFGF, TGF-β1, fibronectin and Col 1], the tests were carried out in the same manners as in (2) and (3) of the above Test Example 3.

TGF-β1 gene expression = assay: Evaluation II: TGF-β-induced gene expression of fibrosis-related factors in NHLF cells: TGF-β1; assay type: cell-based, human; details: 30 μM test substance, 200 μg/mL pirfenidone, 30 μM DEX, 1.0 μM TPCA-1 or 10 μM FP 2 hours, then TGF-β 0.5 ng/mL 4 hours, n = 4
Procedure: as §1, §2

CTGF gene expression = assay: Evaluation II: TGF-β-induced gene expression of fibrosis-related factors in NHLF cells: CTGF; assay type: cell-based, human; details: 30 μM test substance, 200 μg/mL pirfenidone, 30 μM DEX, 1.0 μM TPCA-1 or 10 μM FP 2 hours, then TGF-β 0.5 ng/mL 4 hours, n = 4
Procedure: as §1, §2

[1] = system: fibronectin gene expression; assay: Evaluation II: TGF-β-induced gene expression of fibrosis-related factors in NHLF cells: fibronectin; assay type: cell-based, human; details: 30 μM test substance, 200 μg/mL pirfenidone, 30 μM DEX, 1.0 μM TPCA-1 or 10 μM FP 2 hours, then TGF-β 0.5 ng/mL 4 hours, n = 4
Procedure: as §1, §2

[2] = system: mice where pulmonary fibrosis was induced by bleomycin; assay: Lung wet weight increase of mice where pulmonary fibrosis was induced by bleomycin; assay type: in vivo; details: ICR male mice, bleomycin 2 mg/kg i.v. 5 days; test substance 50 mg/kg or pirfenidone 200 mg/kg per os twice daily for 2 weeks; normal control 205, diseased control 303
Procedure: Bleomycin (2 mg/kg) was repeatedly injected intravenously for 5 days to ICR male mice. The mice were organized into 4 groups of normal control group, diseased control group, test substance-administered group and pirfenidone-administered group.
A test substance was suspended in 0.5 w/v % carboxymethyl cellulose sodium (CMC) and 50 mg/kg thereof was repeatedly administered per os with stirring twice daily for 2 weeks using an oral sonde for rats. Pirfenidone was suspended in 0.5 w/v % CMC and 200 mg/kg thereof was repeatedly administered per os with stirring twice daily for 2 weeks using an oral sonde for rats. To the normal control group and the diseased control group, 0.5 w/v % CMC was repeatedly administered per os according to the same administration schedule. After finishing the administration period, both lungs were excised from the mice and their wet weight was measured.

Structure (SMILES) | Luminescent Intensity to Stimulated TNF-α (%) (NF-κB) | Copy Numbers per 10000 Copies of GAPDH Col 1 (Col 1 gene expression) | Copy Numbers per 10000 Copies of GAPDH TGF-β1 (TGF-β1 gene expression) | Copy Numbers per 10000 Copies of GAPDH CTGF (CTGF gene expression) | Copy Numbers per 10000 Copies of GAPDH Fibronectin [1] | Wet Lung Weight [2] [mg]
O=c1oc2c(OS(=O)(=O)c3cccc([N+](=O)[O-])c3)cccc2cc1NS(=O)(=O)c1cccc([N+](=O)[O-])c1 [Compound 17, 3-[(3-Nitrophenyl)sulfonylamino]-2-oxochromen-8-yl 3-nitrobenzenesulfonate] | 0.1 | – | – | – | – | –
C[C@@H]1C[C@H]2[C@@H]3CCC4=CC(=O)C=C[C@]4(C)[C@@]3(F)[C@@H](O)C[C@]2(C)[C@@]1(O)C(=O)CO [DEX, dexamethasone] | – | 610.7 copies per 10000 copies of GAP | 546.9 copies per 10000 copies of GAP | 1010.1 copies per 10000 copies of GAP | 4314.6 copies per 10000 copies of GAP | –
CCC(=O)O[C@]1(C(=O)SCF)[C@H](C)C[C@H]2[C@@H]3C[C@H](F)C4=CC(=O)C=C[C@]4(C)[C@@]3(F)[C@@H](O)C[C@@]21C [FP, fluticasone propionate] | – | 593.3 copies per 10000 copies of GAP | 450.6 copies per 10000 copies of GAP | 1166.8 copies per 10000 copies of GAP | 3603.2 copies per 10000 copies of GAP | –
Cc1ccc(=O)n(-c2ccccc2)c1 [Pirfenidone] | – | 1027.6 copies per 10000 copies of GAP | 962.5 copies per 10000 copies of GAP | 180.6 copies per 10000 copies of GAP | 1689.7 copies per 10000 copies of GAP | 242
NC(=O)Nc1sc(-c2ccc(F)cc2)cc1C(N)=O [TPCA-1] | – | 840.4 copies per 10000 copies of GAP | 886.9 copies per 10000 copies of GAP | 461.2 copies per 10000 copies of GAP | 3757.9 copies per 10000 copies of GAP | –
